Experimental data from patent publication US20020197294A1, “PYRONE COMPOUNDS AND THERE USE” (SUMITOMO CHEMICAL COMPANY, LIMITED, priority 2001, published 2002).

Legend:
Type in all cases: in vivo
[1] = tested on: houseflies (Musca domestics); assay: Housefly topical application test (Test Example 3); conditions: 0.5 μl of 30 g/l acetone solution at back thoracic region (about 15 μg/one housefly), female houseflies, after 24 hours, three replicate
Experimental: A solution (30 g/l) for each of the present compound (A) and the reference compound was prepared by diluting with acetone.
The acetone solution (0.5 μl) was applied to 10 female houseflies (Musca domestics) at the back thoracic region (active ingredient: about 15 μg/one housefly) by a microsyringe and the houseflies were left with water and feed in a plastic cup. After 24 hours, the mortality (%) was examined (three replicate).

[2] = tested on: houseflies (Musca domestics); assay: Housefly filter paper test (Test Example 2); conditions: 0.7 ml of 500 ppm aqueous dilution on filter paper, female houseflies, after one day
Experimental: Filter paper of 5.5 cm in diameter was laid in the bottom of a polyethylene cup (diameter: 5.5 cm). After 0.7 ml of a 500 ppm aqueous dilution obtained by diluting the formulation of the test compound prepared according to the formulation example 1 was dropped on the filter paper, 30 mg of sucrose was scattered. Ten female houseflies (Musca domestics) were left in the cup with a cover. After one day, the mortality of the houseflies was examined.

[3] = tested on: German cockroaches (Blattella germanica); assay: German cockroach filter paper test (Test Example 1); conditions: 144 h, 0.7 ml of 500 ppm aqueous dilution on filter paper, male German cockroaches, after six days
Experimental: Filter paper of 5.5 cm in diameter was laid in the bottom of a polyethylene cup (diameter: 5.5 cm). After 0.7 ml of a 500 ppm aqueous dilution obtained by diluting the formulation of the test compound prepared according to the formulation example 1 was dropped on the filter paper, 30 mg of sucrose was scattered. Two male German cockroaches (Blattella germanica) were left in the polyethylene cup with a cover. After six days, the mortality of the German cockroaches was examined.

Row | Compound | Mortality (%) [1] [%] | mortality of the houseflies [2] [%] | mortality at 500 ppm [3] [%]
1 | CCCC(=O)c1c(O)cc(C)oc1=O [The Reference compound, reference compound] | 3.3 | – | –
2 | Cc1cc(O)c(C(=O)CC(C(F)(F)F)C(F)(F)F)c(=O)o1 [the present compound (C), 4-hydroxy-6-methyl-3-(3-trifluoromethyl-4,4,4-trifluorobutyryl) -2-pyrone] | – | 100 | 100
3 | Cc1cc(O)c(C(=O)CCC(F)(F)F)c(=O)o1 [the present compound (A), 4-hydroxy-6-methyl-3-(4,4,4-trifluorobutyryl)-2-pyrone] | 100 | 100 | 100
4 | Cc1cc(O)c(C(=O)CC(C)C(F)(F)F)c(=O)o1 (centres unmarked) [the present compound (B), 4-hydroxy-6-methyl-3-(3-trifluoromethylbutyryl)-2-pyrone] | – | 100 | 100
